These results are taken from patent US9938259B2, “Therapeutic compositions and related methods of use” (Agios Pharmaceuticals, Inc., priority 2009, dated 2018).

Chain of PKM2 (P14618 whole entry): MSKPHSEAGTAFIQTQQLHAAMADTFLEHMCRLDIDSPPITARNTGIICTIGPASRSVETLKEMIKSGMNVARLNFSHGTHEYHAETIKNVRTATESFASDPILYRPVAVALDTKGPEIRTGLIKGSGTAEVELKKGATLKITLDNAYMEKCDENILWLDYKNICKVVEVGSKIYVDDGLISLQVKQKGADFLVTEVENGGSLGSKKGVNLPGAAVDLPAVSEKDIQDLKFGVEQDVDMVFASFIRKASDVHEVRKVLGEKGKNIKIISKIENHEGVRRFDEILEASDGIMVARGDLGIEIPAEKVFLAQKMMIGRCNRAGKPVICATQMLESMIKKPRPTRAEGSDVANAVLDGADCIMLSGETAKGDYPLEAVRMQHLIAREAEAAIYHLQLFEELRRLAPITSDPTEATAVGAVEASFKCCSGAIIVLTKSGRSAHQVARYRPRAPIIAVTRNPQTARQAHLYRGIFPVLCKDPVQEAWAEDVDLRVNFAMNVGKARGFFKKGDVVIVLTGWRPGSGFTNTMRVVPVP

This assay addresses PKM2 (Homo sapiens, UniProt P14618). As to the kind of experiment: PKM2 Assay. Format: biochemical. The following applies: activation of PKM2 enzyme, LDH-coupled, absorbance at 340 nm; read-out: PKM2_AC50. On the procedure: • PKM2 stock enzyme solution was diluted in Reaction Buffer • 2 μL of compound was added into each well first, and then 180 μL of the Reaction Mix was added. • Reaction mixture with compound (without ADP) were incubated for 30 minutes at 4° C. • Plates were re-equilibrated to room temperature prior to adding 20 μL ADP to initiate the reaction. • Reaction progress was measured as changes in absorbance at 340 nm wavelength at room temperature (25° C.) • Reaction Mix: PKM2 (50 ng/well), ADP (0.7 mM), PEP (0.15 mM), NADH (180 μM), LDH (2 units) in Reaction Buffer • Reaction Buffer: 100 mM KCl, 50 mM Tris pH 7.5, 5 mM MgCl2, 1 mM DTT, 0.03% BSA.
Take `Cc1cc(NS(=O)(=O)c2cncn2-c2cnccn2)ccc1F`: the AC50 lay in the range of 0.1 to 0.5 µM. Turning to `O=S(=O)(Nc1cccc2ccccc12)c1cncn1-c1ncc(C(F)(F)F)cc1Cl`, the AC50 was in the range of 0.1 to 0.5 µM. In the case of `Cc1cc(NS(=O)(=O)c2cccn2-c2ncccc2Cl)ccc1F` [drawing 101] it was less than 0.1 µM; in that of `O=S(=O)(Nc1ccc2c(c1)OCCO2)c1cncn1-c1ncc(C(F)(F)F)cc1Cl`, 1 to 10 µM. With `O=S(=O)(Nc1cccc(Cl)c1)c1cncn1-c1nccs1` the figure was 0.5 to 1 µM; with `O=S(=O)(Nc1ccc2c(c1)OCCO2)c1cncn1-c1ccc(C(F)(F)F)cn1`, more than 10 µM; with `O=S(=O)(Nc1ccc(F)c(Cl)c1)c1cncn1-c1nccc(Cl)n1`, 1 to 10 µM. In the case of `O=S(=O)(Nc1ccc2c(c1)OCO2)c1cncn1-c1cnccn1` it was 0.1 to 0.5 µM; in that of `O=S(=O)(Nc1ccc(Oc2ccc(C(F)(F)F)cn2)c(Cl)c1)c1cccn1-c1ncc(C(F)(F)F)cc1Cl`, 1 to 10 µM; in that of `O=S(=O)(Nc1cccc(C(F)(F)F)c1)c1cccn1-c1ccnc(Cl)n1`, 0.5 to 1 µM. With `COc1ccc(NS(=O)(=O)c2cncn2-c2ccc(C(F)(F)F)cn2)cc1`, the AC50 lay in the range of 1 to 10 µM. In the case of `O=S(=O)(Nc1ccc(Cl)cc1)c1cccn1-c1ncccc1Cl` [drawing 154] it was 0.1 to 0.5 µM; in that of `COc1ccc(NS(=O)(=O)c2cnn(-c3ncc(C(F)(F)F)cc3Cl)c2)cc1`, 1 to 10 µM.

For the compound `Cc1cc(NS(=O)(=O)c2ccnn2-c2ncc(C(F)(F)F)cc2Cl)ccc1F`, the AC50 is less than 0.1 µM. On to `Cc1cccc(NS(=O)(=O)c2cncn2-c2cnccn2)c1`, for which the AC50 lay in the range of 0.1 to 0.5 µM. In the case of `N#Cc1cccc(NS(=O)(=O)c2cncn2-c2ncc(C(F)(F)F)cc2Cl)c1` it was 1 to 10 µM; in that of `O=S(=O)(Nc1cc(F)cc(F)c1)c1cncn1-c1ncccn1`, 1 to 10 µM. For the compound `COc1ccc(NS(=O)(=O)c2cncn2-c2ncc(C(F)(F)F)cc2Cl)cc1`, the AC50 fell in the range of 1 to 10 µM. In the case of `O=S(=O)(Nc1cc(F)cc(F)c1)c1cccn1-c1ncccc1Cl` [drawing 63] it was 0.5 to 1 µM.

In the case of `O=S(=O)(Nc1ccc(F)cc1)c1cccn1-c1ccc(C(F)(F)F)cn1`, the AC50 lay within 1 to 10 µM.

Turning to `O=S(=O)(Nc1ccc(Cl)cc1)c1cnn(-c2ccc(C(F)(F)F)cn2)c1`, the AC50 lay within 1 to 10 µM. In the case of `O=S(=O)(Nc1cc(F)c(F)c(F)c1)c1cccn1-c1ncc(C(F)(F)F)cc1Cl` it was 0.1 to 0.5 µM.

Regarding `O=S(=O)(Nc1ccc(F)cc1)c1cncn1-c1ccc(C(F)(F)F)cn1`, the AC50 lay within 1 to 10 µM. With `O=S(=O)(Nc1cccc(Cl)c1)c1ccnn1-c1nccs1` the figure was 1 to 10 µM; with `N#Cc1cccc(NS(=O)(=O)c2cccn2-c2ncc(C(F)(F)F)cc2Cl)c1`, 0.1 to 0.5 µM. In the case of `O=S(=O)(Nc1ccc(Cl)cc1)c1cccn1-c1nccc(Cl)n1` it was 0.5 to 1 µM; in that of `O=S(=O)(Nc1cccc(Cl)c1)c1ccnn1-c1ncc(C(F)(F)F)cc1Cl`, 0.1 to 0.5 µM; in that of `COC(=O)c1cccc(NS(=O)(=O)c2cccn2-c2ncc(C(F)(F)F)cc2Cl)c1`, 1 to 10 µM. Take `O=S(=O)(Nc1ccc(F)c(Cl)c1)c1cncn1-c1ncccn1` [drawing 117]: the AC50 lay within 0.1 to 0.5 µM.

For the compound `O=S(=O)(NCc1cccnc1)c1cccn1-c1ncc(C(F)(F)F)cc1Cl`, the AC50 is 1 to 10 µM. Turning to `O=S(=O)(Nc1cc(Cl)cc(Cl)c1)c1cccn1-c1ncc(C(F)(F)F)cc1Cl`, the AC50 is 1 to 10 µM. With `O=S(=O)(Nc1cc(F)cc(F)c1)c1cccn1-c1ncccc1Cl` [drawing 162] the figure was less than 0.1 µM.

Regarding `O=S(=O)(Nc1ccc2c(c1)OCO2)c1cccn1-c1ccnc(Cl)n1`, the AC50 is less than 0.1 µM. In the case of `O=S(=O)(Nc1ccc(F)cc1)c1cccn1-c1ncccc1Cl`, the AC50 was 1 to 10 µM. In the case of `O=S(=O)(Nc1cccc(Cl)c1)c1ccnn1-c1cccs1` it was more than 10 µM; in that of `O=S(=O)(Nc1cc(C(F)(F)F)cc(C(F)(F)F)c1)c1cncn1-c1ncc(C(F)(F)F)cc1Cl`, more than 10 µM; in that of `COc1ccc(NS(=O)(=O)c2cnn(-c3ccc(C(F)(F)F)cn3)c2)cc1`, more than 10 µM.

Turning to `O=S(=O)(Nc1cc(F)c(F)c(F)c1)c1cccn1-c1ccnc(Cl)n1`, the AC50 lay in the range of 1 to 10 µM. In the case of `CCCNS(=O)(=O)c1cccn1-c1ncc(C(F)(F)F)cc1Cl` it was 1 to 10 µM; in that of `O=S(=O)(Nc1cccc(Cl)c1)c1cncn1-c1cccs1`, 1 to 10 µM; in that of `O=S(=O)(Nc1ccc(Cl)cc1)c1cccn1-c1ncccn1`, 1 to 10 µM. Consider `O=S(=O)(Nc1cccc(C(F)(F)F)c1)c1cccn1-c1ncc(C(F)(F)F)cc1Cl`, for which the AC50 fell in the range of 0.1 to 0.5 µM. In the case of `O=S(=O)(Nc1cccc(-c2ccc(C(F)(F)F)cn2)c1)c1cccn1-c1ncc(C(F)(F)F)cc1Cl`, the AC50 lay in the range of 1 to 10 µM.

With `O=S(=O)(Nc1ccccc1C(F)(F)F)c1cccn1-c1ncc(C(F)(F)F)cc1Cl`, the AC50 is 1 to 10 µM. With `Cc1cc(NS(=O)(=O)c2ccnn2-c2cnccn2)ccc1F` the figure was 0.1 to 0.5 µM; with `Cc1cc(NS(=O)(=O)c2cncn2-c2cccs2)ccc1F`, 1 to 10 µM; with `O=S(=O)(Nc1ccc(F)cc1)c1cncn1-c1nccc(Cl)n1`, 1 to 10 µM. In the case of `O=S(=O)(Nc1cc(F)cc(F)c1)c1cncn1-c1ncc(C(F)(F)F)cc1Cl` it was 0.5 to 1 µM; in that of `Cc1cc(NS(=O)(=O)c2ccnn2-c2nccs2)ccc1F`, 1 to 10 µM. With `O=S(=O)(Nc1ccc(F)cc1)c1cncn1-c1ncccn1` the figure was 1 to 10 µM; with `Cc1cc(NS(=O)(=O)c2cncn2-c2ncccn2)ccc1F` [drawing 132], less than 0.1 µM; with `O=S(=O)(Nc1cccc(C(F)(F)F)c1)c1cncn1-c1ncc(C(F)(F)F)cc1Cl`, 1 to 10 µM. For the compound `O=S(=O)(Nc1cc(F)cc(F)c1)c1cncn1-c1ccnc(Cl)n1`, the AC50 is more than 10 µM. In the case of `O=S(=O)(Nc1ccc(F)c(Cl)c1)c1cncn1-c1cnccn1` it was 0.1 to 0.5 µM; in that of `COc1cc(NS(=O)(=O)c2cncn2-c2ncc(C(F)(F)F)cc2Cl)cc(C(F)(F)F)c1` [drawing 122], 1 to 10 µM. For `O=S(=O)(Nc1cc(F)cc(F)c1)c1cccn1-c1ccnc(Cl)n1`, the AC50 lay in the range of 0.5 to 1 µM. With `O=S(=O)(Nc1cccc2ncccc12)c1cncn1-c1ncc(C(F)(F)F)cc1Cl` the figure was 1 to 10 µM; with `O=S(=O)(Nc1ccc(F)cc1)c1cncn1-c1ncc(C(F)(F)F)cc1Cl`, 1 to 10 µM; with `O=S(=O)(Nc1ccc(Cl)cc1)c1cncn1-c1ccnc(Cl)n1`, 1 to 10 µM. In the case of `O=S(=O)(Nc1ccc2c(c1)OCO2)c1cncn1-c1ncccn1` it was 0.5 to 1 µM; in that of `O=S(=O)(Nc1ccc2ncccc2c1)c1cncn1-c1ncc(C(F)(F)F)cc1Cl`, 1 to 10 µM. With `O=S(=O)(Nc1ccc2c(c1)OCO2)c1cncn1-c1ccnc(Cl)n1` the figure was 0.5 to 1 µM; with `O=S(=O)(Nc1ccc(F)c(Cl)c1)c1cccn1-c1ncccc1Cl`, 0.1 to 0.5 µM.

As for `Cc1cc(C)cc(NS(=O)(=O)c2cncn2-c2ccc(C(F)(F)F)cn2)c1`, the AC50 was in the range of 0.1 to 0.5 µM.

Consider `CN(C)S(=O)(=O)c1cccn1-c1ncc(C(F)(F)F)cc1Cl`, for which the AC50 was more than 10 µM. In the case of `COc1cc(NS(=O)(=O)c2cccn2-c2ncc(C(F)(F)F)cc2Cl)cc(C(F)(F)F)c1` it was 0.5 to 1 µM. With `COCCNS(=O)(=O)c1cccn1-c1ncc(C(F)(F)F)cc1Cl` the figure was more than 10 µM; with `O=S(=O)(Nc1ccc(Cl)cc1)c1cncn1-c1ncccn1`, 1 to 10 µM. In the case of `O=S(=O)(Nc1ccc(F)c(Cl)c1)c1cncn1-c1nccs1` it was 0.5 to 1 µM; in that of `O=S(=O)(NCc1ccc(Cl)cc1)c1cccn1-c1ncc(C(F)(F)F)cc1Cl`, more than 10 µM; in that of `COc1cc(NS(=O)(=O)c2cncn2-c2ncc(C(F)(F)F)cc2Cl)cc(OC)c1`, 0.5 to 1 µM.

With `O=S(=O)(Nc1ccc(Cl)cc1)c1cnn(-c2ncc(C(F)(F)F)cc2Cl)c1`, the AC50 was 0.1 to 0.5 µM. With `O=S(=O)(Nc1ccc(F)cc1)c1cncn1-c1ccnc(Cl)n1` the figure was 1 to 10 µM. In the case of `COc1cc(NS(=O)(=O)c2cccn2-c2ncc(C(F)(F)F)cc2Cl)cc(OC)c1` it was 0.1 to 0.5 µM.

Regarding `COc1cc(NS(=O)(=O)c2cncn2-c2ncc(C(F)(F)F)cc2Cl)cc(C(F)(F)F)c1` [drawing 149], the AC50 was 1 to 10 µM. In the case of `COc1cc(NS(=O)(=O)c2cccn2-c2ccnc(Cl)n2)cc(C(F)(F)F)c1` it was 0.5 to 1 µM.

As for `O=S(=O)(Nc1cc(F)c(F)c(F)c1)c1cncn1-c1ncc(C(F)(F)F)cc1Cl`, the AC50 is 1 to 10 µM. With `CCc1cccc(NS(=O)(=O)c2cncn2-c2ncc(C(F)(F)F)cc2Cl)c1`, the AC50 is 0.1 to 0.5 µM. In the case of `O=S(=O)(Nc1ccc(F)c(Cl)c1)c1cncn1-c1ccnc(Cl)n1` it was 0.1 to 0.5 µM; in that of `O=S(=O)(Nc1ccc(F)c(Cl)c1)c1cncn1-c1cccs1`, 1 to 10 µM. With `Cc1cc(NS(=O)(=O)c2cncn2-c2nccs2)ccc1F` the figure was 0.1 to 0.5 µM; with `O=S(=O)(Nc1ccc(Cl)cc1)c1cccn1-c1ccnc(Cl)n1`, 0.5 to 1 µM. On to `COc1ccc(NS(=O)(=O)c2cccn2-c2ncc(C(F)(F)F)cc2Cl)cc1`, for which the AC50 lay in the range of 0.1 to 0.5 µM. With `O=S(=O)(Nc1ccc(F)c(Cl)c1)c1cccn1-c1nccc(Cl)n1` the figure was 0.1 to 0.5 µM; with `Cc1cc(NS(=O)(=O)c2cccn2-c2ccnc(Cl)n2)ccc1F`, less than 0.1 µM. With `Cc1cc(NS(=O)(=O)c2ccnn2-c2cccs2)ccc1F` the figure was 1 to 10 µM.

In the case of `O=S(=O)(Nc1cc(F)cc(F)c1)c1cncn1-c1nccc(Cl)n1`, the AC50 is 1 to 10 µM. With `O=S(=O)(Nc1ccc(F)c(Cl)c1)c1ccnn1-c1nccs1` the figure was 1 to 10 µM.
